Triple point temperature and Normal melting temperature data for six molecules are collected here from the NIST ThermoML archive (doi:10.1016/j.tca.2014.05.022).

“And” between values parts separate entries of the source, which are not always exact repeats. Equal values may be shown once. Numbers after ± are expanded uncertainties.

The conditions of this data set: DTA; for Normal melting temperature: Crystal.

Take `CCCCCCCCCCCCCCCCO` [1-hexadecanol]: the Normal melting temperature stood at 50 ± 0.5 °C. In addition, the Triple point temperature (Crystal 1) is 323.3 ± 0.87 K and 323 ± 0.9 K. For the same molecule, where the note is “Crystal 2”, the Triple point temperature was 322.3 ± 0.9 K and 322.2 ± 0.9 K.

As for `CCCCCCCCCCCCCCCCCCO` [1-octadecanol], the Normal melting temperature was found to be 58.5 ± 0.5 °C. For the setting “Crystal 1”, the Triple point temperature was found to be 331.6 ± 0.9 K. Also, for the setting “Crystal 2”, the Triple point temperature is 331 ± 0.9 K and 330.6 ± 0.9 K.

`CCCCCCCCCCCCCCO` [1-tetradecanol]: the Normal melting temperature turned out to be 38.2 ± 0.5 °C. For the same molecule, the Triple point temperature (Crystal 1) was 311.2 ± 0.9 K and 311.4 ± 0.9 K. Moreover, the Triple point temperature (Crystal 2) was 310.2 ± 0.9 K and 310.4 ± 0.9 K.

As for `CCCCCCCCCCO` [decan-1-ol], the Normal melting temperature was 7.5 ± 0.5 °C. Further, the Triple point temperature (Crystal 1) was 280.6 ± 0.9 K and 280.8 ± 0.9 K. For the same molecule, for the setting “Crystal 2”, the Triple point temperature is 280.2 ± 0.9 K and 279.9 ± 0.9 K. Besides, the Triple point temperature (Crystal 3) was 276.2 ± 0.9 K and 277.5 ± 0.9 K.

Consider `CCCCCCCCCCCCO` [dodecan-1-ol], for which the Normal melting temperature is 24.7 ± 0.5 °C and 24.2 ± 0.5 °C. The Triple point temperature (Crystal 1) is 297.8 ± 0.9 K and 297.4 ± 0.9 K. Besides, the Triple point temperature (Crystal 2) is 296.4 ± 0.9 K.

With `CCCCCCCCO` [octan-1-ol], the Normal melting temperature is -14.4 ± 0.5 °C. In addition, the Triple point temperature (Crystal 1) was 258.7 ± 0.9 K and 258.3 ± 0.9 K. For the same molecule, the Triple point temperature (Crystal 2) is 255 ± 0.5 K and 256 ± 0.9 K.
